From patent publication US11079383B2, “Diagnosis and monitoring treatment of prostate cancer” (THE GENERAL HOSPITAL CORPORATION, priority 2012, dated 2021)
“Also recorded” adds a separate entry of the source.

What was measured:
[1] = test system: CTCs from patients with CRPC; assay: AR signaling phenotypes in CTCs from CRPC patients before and after second line hormonal therapy (HBCTC-Chip); format: in vivo, human; details: for Effect of second line hormonal treatment on CTC numbers and AR phenotypes: CRPC patients, ketoconazole N=1, bicalutamide N=2, abiraterone acetate N=13
Description: (§1) Patients and Clinical Specimens Patients with metastatic prostate cancer receiving treatment at the Massachusetts General Hospital (MGH) were recruited according to an institutional review board (IRB) approved protocol. A total of 21 prostate cancer patients donated 10-20 mL of blood on one or more occasions for CTC analysis. A total of 21 male patients with no known diagnosis of cancer were recruited during routine visits to the MGH outpatient internal medicine clinic according to a separate IRB approved protocol. CTC capture using the ^HBCTC-Chip was performed as described (Stott S L, et al. Proc Natl Acad Sci USA 2010; 107: 18392-7), with anti-EpCAM mediated capture of cells, followed by combined staining with anti-PSA, anti-PSMA, and anti-CD45 antibodies (described in detail below).
(§2) HBCTC-Chip Blood Processing All specimens were collected into Vacutainer (Becton-Dickson) tubes containing the anticoagulant EDTA and were processed through the ^HBCTC-Chip within 6 hours of blood draw. Samples were run on the previously described microfluidic processing machine (Stott S L, et al. Proc Natl Acad Sci USA 2010; 107: 18392-7). Briefly, a 5 mL aliquot of blood was placed in an airtight conical tube on a rocker assembly, and 2-4 mL of blood were pneumatically driven through the chip at a flow rate of 1-1.5 mL/hour. Following processing, the ^HBCTC-Chip was flushed with 2.5 mL of PBS at 2.5 mL/hour to remove nonspecifically bound cells. Isolated CTCs were then subjected to immunofluorescence staining, as described below.
Immunofluorescence Staining and Automated Fluorescence Microscopy To establish and validate the immunofluorescence single cell AR signature, LNCaP cells were cultured in media containing 10% charcoal-stripped serum for 3 days followed by treatment with 1 nM R1881 or 10 μM bicalutamide for 24 hours. Once the assays were validated in cultured cells, they were applied to cells spiked into whole blood and isolated on the CTC-Chip, to healthy donor blood samples to establish the signal intensity threshold for detection, and ultimately on primary patient samples processed through the Chip. Cells captured on the ^HBCTC-chip were fixed with 4% formaldehyde and permeabilized with 1% NP-40 in PBS. Immunofluorescence staining was performed using a rabbit polyclonal anti-PSA antibody (DAKO), a mouse monoclonal IgG1 anti-PSMA antibody (J591; N. Bander), and a mouse monoclonal IgG2a anti-CD45 antibody (Abcam), followed by appropriately matched secondary antibodies conjugated with DyLight 649 (Jackson ImmunoResearch), Alexa Fluor 555 (Invitrogen), and Alexa Fluor 488 (Invitrogen). Nuclei were stained with DAPI. An automated upright fluorescence microscopy scanning system (BioView) fitted with a precision motorized stage and xenon arc lamp (Lumen 2000, Prior Scientific) was used to comprehensively image each CTC-chip under 10× magnification in seven z-planes. Due to inherent auto fluorescence of biological samples that can interfere with the specificity of stains in the green spectra, the negative control marker, CD45, was paired with the Alexa Fluor 488 secondary antibody. This choice reduced the sensitivity of the staining assay (potentially more false negatives), but lessened the risk of false positives through natural autofluorescence. Conversely, PSA, the highest affinity antibody tested (and subsequently strongest fluorescent signal) was placed in the Cy5 channel, where the quantum efficiency of traditional monochrome CCD sensors is reduced. To successfully achieve distinct, non-overlapping fluorescent signals in four colors while maximizing the fluorescent intensity output, modified Magnetron sputter-coated filter sets were selected for the Cy3 and Cy5 spectra (Chroma). Additional filter sets for the DAPI and FITC channel were used and exposure times were optimized. All samples were subsequently imaged at predetermined exposure times. […]

[2] = test system: metastatic CRPC; details: men with metastatic CRPC who have previously received chemotherapy; cited from earlier work
[3] = test system: LNCaP cells; assay: Multiparameter single cell immunofluorescence assay for AR signaling (PSA/PSMA) in LNCaP cells; format: cell-based, human; details: androgen-starved LNCaP cells (3 days 10% charcoal-stripped serum) treated with 1 nM R1881
Source text: To achieve multiparameter single cell analysis of AR activity, an automated fluorescence microscopy scanning platform was adapted to distinctly and specifically measure four fluorescent emission spectra simultaneously. Secondary fluorophores and optical band pass filters were selected to avoid “cross-talk” between the multiple fluorescent signals that are closely located on the electromagnetic spectrum, while maximizing signal intensity. The disclosed assay for quantitative measurement of signal intensity profiles for cells stained with antibodies against PSA and PSMA was developed using a model cell system (LNCaP). […]
(§3) Immunofluorescence Staining and Automated Fluorescence Microscopy To establish and validate the immunofluorescence single cell AR signature, LNCaP cells were cultured in media containing 10% charcoal-stripped serum for 3 days followed by treatment with 1 nM R1881 or 10 μM bicalutamide for 24 hours. […] An automated upright fluorescence microscopy scanning system (BioView) fitted with a precision motorized stage and xenon arc lamp (Lumen 2000, Prior Scientific) was used to comprehensively image each CTC-chip under 10× magnification in seven z-planes. Due to inherent auto fluorescence of biological samples that can interfere with the specificity of stains in the green spectra, the negative control marker, CD45, was paired with the Alexa Fluor 488 secondary antibody. […]

[4] = test system: CTCs from patients with castration-sensitive prostate cancer; assay: AR signaling phenotypes in CTCs from patients with castration-sensitive metastatic prostate cancer before and after ADT (HBCTC-Chip); format: in vivo, human; details: for Change of CTC AR signaling phenotype after ADT: treatment-naive castration-sensitive metastatic prostate cancer patients with detectable CTCs
Description: as §1
as §2, with “Following processing, the ^HBCTC-Chip was flushed with 2.5 mL of PBS at 2.5 mL/hour to remove nonspecifically bound cells. Isolated CTCs were then subjected to immunofluorescence staining, as described below.” left out
as §3

## CC(=O)O[C@H]1CC[C@@]2(C)C(=CC[C@@H]3[C@@H]2CC[C@]2(C)C(c4cccnc4)=CC[C@@H]32)C1 [abiraterone acetate]
[1]; 6 of 13 patients
  CRPC patients with a stable percentage of AR-on CTCs after therapy: 46%
[1]
  Effect of second line hormonal treatment on CTC numbers and AR phenotypes: varying effects on CTC numbers and AR phenotypes
[1]; single patients, after initiation of therapy (FIG. 4A, FIG. 4C)
  Change in proportion of PSA+/PSMA− AR-on CTCs in an individual CRPC patient: a decrease in the proportion of PSA+/PSMA− “AR-on” CTCs; also recorded: Increase in the proportion of PSA+/PSMA− “AR-on” CTCs
[1]; within 2-5 weeks of therapy, 4 of 13 patients
  CRPC patients with ≥50% decline in the percentage of AR-on (PSA+/PSMA−) CTCs: 31%
[1]; within the first 2-5 weeks of therapy, 3 of 13 patients
  CRPC patients with ≥50% increase in the percentage of AR-on CTCs: 23%
[2]
  Overall survival: increases overall survival

## C[C@]1(O)CC[C@H]2[C@@H]3CCC4=CC(=O)CCC4=C3C=C[C@@]21C [R1881]
[3]
  AR signaling phenotype (PSA/PSMA signal intensity profile) over time: time-dependent progression from an initial “AR-off” (PSA−/PSMA+) to an intermediate “AR-mixed” (PSA+/PSMA+) phenotype, and finally to an “AR-on” (PSA+/PSMA−) pattern

## CCNC(=O)[C@@H]1CCCN1C(=O)[C@H](CCCNC(=N)N)NC(=O)[C@H](CC(C)C)NC(=O)[C@@H](CC(C)C)NC(=O)[C@H](Cc1ccc(O)cc1)NC(=O)[C@H](CO)NC(=O)[C@H](Cc1c[nH]c2ccccc12)NC(=O)[C@H](Cc1c[nH]cn1)NC(=O)[C@@H]1CCC(=O)N1 [leuprolide]
[4]
  Change of CTC AR signaling phenotype after ADT: transformation of CTCs from the “AR-on” (PSA+/PSMA−) phenotype to the “AR-off” (PSA−/PSMA+) phenotype
[4]; listed as ADT
  Change of CTC AR signaling phenotype after ADT: transformation of the majority of CTCs from the “AR-on” to the “AR-off” phenotype within one month
[4]; treatment-naive metastatic prostate cancer patients with detectable CTCs
  Presence of CTCs after initiation of ADT: complete disappearance of CTCs by 3 months

## CC(=O)N1CCN(c2ccc(OCC3COC(Cn4ccnc4)(c4ccc(Cl)cc4Cl)O3)cc2)CC1 (centres unmarked) [ketoconazole]
[1]
  Effect of second line hormonal treatment on CTC numbers and AR phenotypes: varying effects on CTC numbers and AR phenotypes
